Test results as given in ChEMBL document CHEMBL5325456, “5-(4-Hydroxyphenyl)-3H-1,2-dithiole-3-thione derivatives of brefeldin A: Design, synthesis and cytotoxicity in MDA-MB-231 human breast cancer cells” (Bioorg Med Chem, 2023).

Key:
[1] = system: HepG2; assay: Antiproliferative activity against human HepG2 cells assessed as reduction in cell viability incubated for 48 hrs by CCk-8 assay; type: functional, cell-based; conditions: HepG2, 48 h
[2] = Selectivity index, ratio of IC50 for antiproliferative activity against human L02 cells to IC50 for antiproliferative activity against human MDA-MB-231 cells; type: toxicity, cell-based; conditions: L02 cells and MDA-MB-231 cells, read-out: Ratio IC50
[3] = system: DU-145; assay: Antiproliferative activity against human DU-145 cells assessed as reduction in cell viability incubated for 48 hrs by CCk-8 assay; type: functional, cell-based; conditions: DU-145, 48 h
[4] = system: MDA-MB-231; assay: Antiproliferative activity against human MDA-MB-231 cells assessed as reduction in cell viability incubated for 48 hrs by CCk-8 assay; type: functional, cell-based; conditions: MDA-MB-231, 48 h
[5] = Antiproliferative activity against human L02 cells assessed as reduction in cell viability incubated for 48 hrs by CCk-8 assay; type: toxicity, cell-based
[6] = system: HeLa; assay: Antiproliferative activity against human HeLa cells assessed as reduction in cell viability incubated for 48 hrs by CCk-8 assay; type: functional, cell-based
[7] = system: A549; assay: Antiproliferative activity against human A549 cells assessed as reduction in cell viability incubated for 48 hrs by CCk-8 assay; type: functional, cell-based; conditions: A549, 48 h
[8] = system: A-375; assay: Antiproliferative activity against human A-375 cells assessed as reduction in cell viability incubated for 48 hrs by CCk-8 assay; type: functional, cell-based; conditions: A-375, 48 h

| SMILES | IC50 [1] [nM] | IC50 [3] [nM] | IC50 [4] [nM] | IC50 [6] [nM] | IC50 [7] [nM] | IC50 [8] [nM] | selectivity ratio [2] | IC50 at 48 h [5] [nM] |
| --- | --- | --- | --- | --- | --- | --- | --- | --- |
| C[C@H]1CCC/C=C/[C@@H]2C[C@H](O)C[C@H]2[C@H](OC(=O)CCC(=O)Oc2ccc(-c3cc(=S)ss3)cc2)/C=C/C(=O)O1 | 7440 | 16100 | 1350 | 2350 | 3190 | 3620 | 6.06 | 8180 |
| C[C@H]1CCC/C=C/[C@@H]2C[C@H](O)C[C@H]2[C@H](OC(=O)CCC(=O)OCCCCCCOc2ccc(-c3cc(=S)ss3)cc2)/C=C/C(=O)O1 | 3420 | 3640 | 1410 | 770 | 1520 | 640 | 2.31 | 3260 |
| C[C@H]1CCC/C=C/[C@@H]2C[C@H](O)C[C@H]2[C@H](O)/C=C/C(=O)O1 [BREFELDIN A] | 120 | 160 | 54 | 44 | 56 | 39 | 1.74 | 94 |
| C[C@H]1CCC/C=C/[C@@H]2C[C@H](O)C[C@H]2[C@H](OC(=O)CCCC(=O)Oc2ccc(-c3cc(=S)ss3)cc2)/C=C/C(=O)O1 | 18000 | 19500 | 9650 | 5300 | 18200 | 30000 | 2.57 | 24800 |
| C[C@H]1CCC/C=C/[C@@H]2C[C@H](O)C[C@H]2[C@H](OC(=O)c2ccccc2C(=O)Oc2ccc(-c3cc(=S)ss3)cc2)/C=C/C(=O)O1 | 7030 | > 40000 | 1340 | 300 | 330 | 1070 | 2.64 | 3550 |
| C[C@H]1CCC/C=C/[C@@H]2C[C@H](O)C[C@H]2[C@H](OC(=O)CCC(=O)OCCOc2ccc(-c3cc(=S)ss3)cc2)/C=C/C(=O)O1 | 4650 | 1850 | 1190 | 3470 | 2730 | 1690 | 6.97 | 8300 |
| C[C@H]1CCC/C=C/[C@@H]2C[C@H](OC(=O)CCC(=O)OCCCCCCOc3ccc(-c4cc(=S)ss4)cc3)C[C@H]2[C@H](OC(=O)CCC(=O)OCCCCCCOc2ccc(-c3cc(=S)ss3)cc2)/C=C/C(=O)O1 | > 40000 | > 40000 | > 40000 | > 40000 | > 40000 | > 40000 |  | > 40000 |

Now from value to compound, other results behind:

| IC50 [1] [nM] | IC50 [3] [nM] | IC50 [4] [nM] | IC50 [6] [nM] | IC50 [7] [nM] | IC50 [8] [nM] | SMILES | selectivity ratio [2] | IC50 at 48 h [5] [nM] |
| --- | --- | --- | --- | --- | --- | --- | --- | --- |
| 720 | 870 | 500 | 860 | 1460 | 830 | C[C@H]1CCC/C=C/[C@@H]2C[C@H](O)C[C@H]2[C@H](OC(=O)CCC(=O)OCCCCOc2ccc(-c3cc(=S)ss3)cc2)/C=C/C(=O)O1 | 3.28 | 1640 |
| 1720 | 1110 | 510 | 370 | 670 | 530 | C[C@H]1CCC/C=C/[C@@H]2C[C@H](O)C[C@H]2[C@H](OC(=O)CCCC(=O)OCCCCCCOc2ccc(-c3cc(=S)ss3)cc2)/C=C/C(=O)O1 | 6.35 | 3240 |
| 440 | 430 | 160 | 230 | 1040 | 930 | C[C@H]1CCC/C=C/[C@@H]2C[C@H](O)C[C@H]2[C@H](OC(=O)CCCC(=O)OCCCCOc2ccc(-c3cc(=S)ss3)cc2)/C=C/C(=O)O1 | 2.69 | 430 |
